These results are taken from US20210221866A1, “PROTEASE-RESISTANT LIPIDATED GLP-1 ANALOGS” (MEDIMMUNE LIMITED, priority 2015, published 2021).

Square brackets hold non-standard residues; d marks the D form. Peptide text beside a SMILES is read from it. αMeF = C[C@](N)(Cc1ccccc1)C(=O)O; αMeK = C[C@](N)(CCCCN)C(=O)O; Aib = CC(C)(N)C(=O)O

The assay addresses T1, human GLP-1 receptor (GLP-1R) (Homo sapiens, UniProt P43220).
T1 construct: expressed in transfected cells; host or cells: HEK293 cells or CHO cells
Briefly: cAMP assay, human GLP-1R cells. The conditions noted are these: cAMP activity; mean of n1 and n2; read-out: Mean pM GLP-1R. It counts as cell-based. The protocol: Sample dilutions are made in duplicate.
A frozen cryo-vial of cells expressing the receptor of interest is thawed rapidly in a water-bath, transferred to pre-warmed assay buffer and spun at 240×g for 5 minutes. Cells are re-suspended in assay buffer at a batch-dependent optimized concentration (e.g. hGCGR cells at 2×10^5 cells/ml, hGLP-1R and hGIPR cells at 1×10^5 cells/ml).
To this, 5 μL cell suspension is added and the plates incubated at room temperature for 30 minutes.
cAMP levels are measured using a commercially available cAMP dynamic 2 HTRF kit (Cisbio, Cat #62AM4PEJ), following the two step protocol as per manufacturer's recommendations. In brief; anti-cAMP cryptate (donor fluorophore) and cAMP-d2 (acceptor fluorophore) are made up separately by diluting each 1/20 in conjugate & lysis buffer provided in the kit. 5 μL anti-cAMP cryptate is added to wells of the assay plate, and 5 μL cAMP-d2 is added to wells except non-specific binding (NSB) wells, to which conjugate and lysis buffer are added. […] EC50 values of the synthetic peptides determined in cAMP assays are then determined.
Data is transformed to % Delta F as described in the manufacturer's guidelines and analyzed by 4-parameter logistic fit to determine EC50 values. […] To compare the balance of activities at the GLP-1R and GCGR between different peptides and across different conditions, these can be correlated, where the EC50's are related to those of comparator peptides.

T1 sequence (P43220 24-463): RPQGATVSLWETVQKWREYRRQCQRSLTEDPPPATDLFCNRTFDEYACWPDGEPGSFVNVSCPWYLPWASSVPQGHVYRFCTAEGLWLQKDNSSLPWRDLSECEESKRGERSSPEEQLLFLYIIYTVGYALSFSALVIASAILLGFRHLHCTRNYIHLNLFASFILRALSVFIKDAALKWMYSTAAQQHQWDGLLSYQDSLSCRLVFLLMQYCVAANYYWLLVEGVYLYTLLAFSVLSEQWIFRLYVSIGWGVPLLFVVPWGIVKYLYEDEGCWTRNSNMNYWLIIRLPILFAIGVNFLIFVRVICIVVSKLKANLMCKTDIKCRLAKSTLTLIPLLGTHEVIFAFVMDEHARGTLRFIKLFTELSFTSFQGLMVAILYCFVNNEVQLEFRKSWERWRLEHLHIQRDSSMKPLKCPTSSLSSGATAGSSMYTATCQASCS

Consider `CC[C@H](C)[C@H](NC(=O)[C@H](Cc1ccccc1)NC(=O)[C@H](CCC(=O)O)NC(=O)[C@H](CCCCN)NC(=O)[C@H](C)NC(=O)[C@H](C)NC(=O)[C@H](CCC(N)=O)NC(=O)CNC(=O)[C@H](CCC(=O)O)NC(=O)[C@H](CC(C)C)NC(=O)[C@H](Cc1ccc(O)cc1)NC(=O)[C@H](CO)NC(=O)[C@H](CO)NC(=O)[C@@H](NC(=O)[C@H](CC(=O)O)NC(=O)[C@H](CO)NC(=O)[C@@H](NC(=O)[C@H](Cc1ccccc1)NC(=O)[C@@H](NC(=O)CNC(=O)[C@H](CCC(=O)O)NC(=O)C(C)(C)NC(=O)[C@@H](N)Cc1c[nH]cn1)[C@@H](C)O)[C@@H](C)O)C(C)C)C(=O)N[C@@H](C)C(=O)N[C@@H](Cc1c[nH]c2ccccc12)C(=O)N[C@@H](CC(C)C)C(=O)N[C@H](C(=O)N[C@@H](CCCCN)C(=O)NCC(=O)N[C@@H](CCCNC(=N)N)C(=O)N[C@@H](CCCCNC(=O)COCCOCCNC(=O)COCCOCCNC(=O)CC[C@H](NC(=O)CCCCCCCCCCCCCCCCC(=O)O)C(=O)O)C(N)=O)C(C)C` [compound 6], for which the EC50 was found to be 5.1 pM.
`CC[C@H](C)[C@H](NC(=O)[C@](C)(Cc1ccccc1)NC(=O)[C@H](CCC(=O)O)NC(=O)[C@](C)(CCCCN)NC(=O)[C@H](C)NC(=O)[C@H](C)NC(=O)[C@H](CCC(=O)O)NC(=O)CNC(=O)[C@H](CCC(=O)O)NC(=O)[C@H](CC(C)C)NC(=O)[C@](C)(Cc1ccccc1)NC(=O)[C@H](CO)NC(=O)[C@H](CO)NC(=O)[C@@H](NC(=O)[C@H](CCC(=O)O)NC(=O)[C@H](CO)NC(=O)[C@H](CO)NC(=O)[C@](C)(Cc1ccccc1)NC(=O)[C@H](CO)NC(=O)CNC(=O)[C@H](CCC(=O)O)NC(=O)C(C)(C)NC(=O)[C@@H](N)Cc1c[nH]cn1)C(C)C)C(=O)N[C@@H](C)C(=O)N[C@@](C)(Cc1ccccc1)C(=O)N[C@H](C(=O)N[C@H](C(=O)N[C@@](C)(CCCCN)C(=O)NCC(=O)NCC(N)=O)C(C)C)C(C)C` [compound 9] (H-H[Aib]EGS[αMeF]SSEVSS[αMeF]LEGEAA[αMeK]E[αMeF]IA[αMeF]VV[αMeK]GG-NH2; N-terminus assumed): the EC50 was 1200 pM.
Take `CC[C@H](C)[C@H](NC(=O)[C@](C)(Cc1ccccc1)NC(=O)[C@H](CCC(=O)O)NC(=O)[C@](C)(CCCCN)NC(=O)[C@H](C)NC(=O)[C@H](C)NC(=O)[C@H](CCC(=O)O)NC(=O)CNC(=O)[C@H](CCC(=O)O)NC(=O)[C@@H](NC(=O)[C@](C)(Cc1ccccc1)NC(=O)[C@H](CO)NC(=O)[C@H](CO)NC(=O)[C@@H](NC(=O)[C@H](CC(=O)O)NC(=O)[C@H](CO)NC(=O)[C@@H](NC(=O)[C@](C)(Cc1ccccc1)NC(=O)[C@H](CO)NC(=O)CNC(=O)[C@H](CCC(=O)O)NC(=O)C(C)(C)NC(=O)[C@@H](N)Cc1c[nH]cn1)[C@@H](C)O)C(C)C)C(C)C)C(=O)N[C@@H](C)C(=O)N[C@@](C)(Cc1ccccc1)C(=O)N[C@H](C(=O)N[C@H](C(=O)N[C@@](C)(CCCCN)C(=O)NCC(=O)NCC(N)=O)C(C)C)C(C)C` [compound 10] (H-H[Aib]EGS[αMeF]TSDVSS[αMeF]VEGEAA[αMeK]E[αMeF]IA[αMeF]VV[αMeK]GG-NH2): the EC50 is 90 pM.
With `CC(C)[C@H](NC(=O)[C@H](CCC(=O)O)NC(=O)[C@H](CO)NC(=O)[C@H](CO)NC(=O)[C@](C)(Cc1ccccc1)NC(=O)[C@H](CO)NC(=O)CNC(=O)[C@H](CCC(=O)O)NC(=O)C(C)(C)NC(=O)[C@@H](N)Cc1c[nH]cn1)C(=O)N[C@@H](CO)C(=O)N[C@@H](CO)C(=O)N[C@@](C)(Cc1ccccc1)C(=O)N[C@H](C(=O)N[C@@H](CCC(=O)O)C(=O)NCC(=O)N[C@@H](CCC(=O)O)C(=O)N[C@@H](C)C(=O)N[C@@H](C)C(=O)N[C@@](C)(CCCCN)C(=O)N[C@@H](CCC(=O)O)C(=O)N[C@@](C)(Cc1ccccc1)C(=O)N[C@H](C(=O)N[C@@H](C)C(=O)N[C@@](C)(Cc1ccccc1)C(=O)N[C@H](C(=O)N[C@H](C(=O)N[C@@](C)(CCCCN)C(=O)NCC(=O)NCC(N)=O)C(C)C)C(C)C)C(C)C)C(C)C` [compound 12] (H-H[Aib]EGS[αMeF]SSEVSS[αMeF]VEGEAA[αMeK]E[αMeF]VA[αMeF]VV[αMeK]GG-NH2; N-terminus assumed), the EC50 turned out to be 2100 pM.
